Measured values: patent US5621102A, “Process for preparing enantiomerically pure xanthine derivatives” (Cell Therapeutics, Inc., priority 1995, dated 1997)

Legend:
[1] = tested on: PBMC (peripheral blood mononuclear cells); experiment: two-way mixed lymphocyte reaction (MLR); type: cell-based, human
From the text: Various in vitro assays can be used to measure effects of the inventive compounds to module immune activity and have antitumor activity using a variety of cellular types. For example, a mixed lymphocyte reaction (MLR) provides a valuable screening tool to determine biological activity of each inventive compound. In the MLR, PBMCs (peripheral blood mononuclear cells) are obtained by drawing whole blood from healthy volunteers in a heparinized container and diluted with an equal volume of hanks balanced salt solution (HBSS). This mixture is layered on a sucrose density gradient, such as a Ficoll-Hypaque® gradient (specific gravity 1.08), and centrifuged at 1000×g for 25 minutes at room temperature or cooler. PBMC are obtained from a band at a plasma-Ficoll interface, separated and washed at least twice in a saline solution, such as HBSS. Contaminating red cells are lysed, such as by ACK lysis for 10 min at 37° C., and the PBMCs are washed twice in HBSS. The pellet of purified PBMCs is resuspended in complete medium, such as RPMI 1640 plus 20% human inactivated serum. Proliferative response of PBMC to allogeneic stimulation is determined in a two-way MLR performed in a 96-well microliter plate. […] At the conclusion of the incubation tritiated thymidine is added (for example, 1 μCi/well of 40 to 60 Ci/mmole) and proliferation determined by liquid scintillation counting. […]

[2] = tested on: smooth muscle cells; experiment: smooth muscle proliferation stimulated by PDGF and IL-1; type: cell-based; settings: drug added two hours prior to activation
From the text: CT1501R and PTX were separately added to the cells two hours prior to activation with PDGF and IL-1.

[3] = tested on: hair follicles of nu/nu mice; experiment: nude mouse hair studies, topical application; type: in vivo; settings: second experiment; 60% ETOH, 10% water, 30% PEG base, twice daily, 34 days
From the text: This example illustrates nude mouse hair studies involving topical application of CT1501R. Six to eight week old, female, nu/nu mice from Charles River Laboratories were housed at Biosupport Research Support Services (Seattle, Wash.) in autoclaved micro isolator units with hyperchlorinated autoclaved water, irradiated rodent chow and kept under a laminar flow hood. Caging was changed weekly, and water was changed twice weekly. The mice were acclimated for 5 days before beginning each study.
The first topical formulation was prepared by adding CT1501R to a heated hydrophilic ointment (USP) at a 1% concentration, and allowed to solidify.
Nude mice were painted twice daily for 16 days with the first topical formulation of CT1501R on the left flank and another compound in the same base on the right flank with sterile applicators. Mice were handled under the laminar flow hood with applicator wearing face mask and sterile gloves. After 16 days, one mouse was sacrificed by cervical dislocation and skin biopsies were taken of the treated areas of the shoulder/flank and from the non-treated area of the dorsal pelvis (rump). Specimens were placed in 10% buffered formalin solution. Biopsies were sent to a veterinary dermopathologist for histopathology. Six weeks following treatment, a second mouse was euthanatized and biopsied the same as the first. Samples were sent for histopathology.
In a second experiment, topical application of CT1501R was performed along with a commercial topical minoxidil preparation (Rogaine®, Upjohn) that is approved for a hair growth indication. Five to six week old, female, nu/nu mice from Bantin and Kingman Universal were housed at Biosupport Research Support Services (Seattle, Wash.) in autoclaved micro isolator units with hyper chlorinated autoclaved water, irradiated rodent chow and kept under a laminar flow hood. Caging was changed weekly, and water was changed twice weekly. Mice were acclimated for 7 days before beginning study, […]

Compound	proliferative response of PBMC to allogeneic stimulation [1]	inhibition of smooth muscle cell proliferation [2]	hair follicles, subjective histopathological examination [3]
CC(=O)CCCCn1c(=O)c2c(ncn2C)n(C)c1=O [PTX, 1-(5-oxohexyl)-3,7-dimethylxanthine, reference compound]	showed dose-response activity	inhibited smooth muscle cell proliferation at the higher doses tested	–
Nc1cc(N2CCCCC2)nc(N)[n+]1[O-] [minoxidil, reference compound]	–	–	fair response to treatment
